# Laboratory results from US10098900B2, “Pharmaceutical compositions and their use for treatment of cancer and autoimmune diseases” (ZHEJIANG DTRM BIOPHARMA CO. LTD., priority 2015, dated 2018).
# Marks after values point to notes of the source that are not given here.
# Experiments:
# [1] = 28-day toxicity/toxicokinetic (TK) study in dogs; type: in vivo, dog
# DoHH-2 cell line = test: Inhibition assay of tumor cell activity (cell viability), DoHH-2; type: cell-based; settings: Homo sapiens, individual compound, read-out: Inh % on DoHH-2 cell line (AVG)
# Protocol: (§1) Inhibition Assay of Tumor Cell Activity:
# (§2) Tumor cells (TMD-8, DoHH2 and WSU-DLCL2) were transferred and attached to 96-well plates. After one night, blank buffer and selected concentrations (0.01 nM-100 μM) of the test compound solution were added. After 48 hours incubation, CellTiter-Go was added to lyse the cells. Recording luminescent signal and calculate the percent inhibition of cell viability
# [2] = test system: resistant WSU-DLCL2 cell line; test: Inhibition assay of tumor cell activity (cell viability), WSU-DLCL2; type: cell-based; settings: Homo sapiens, WSUDLCL2, individual compound, read-out: Inh % on resistant WSU-DLCL2 cell line (AVG)
# Protocol: as §1, §2
# [3] = test system: DoHH-2 lymphoma xenograft; test: Inhibition of tumor growth in vivo, DoHH-2 lymphoma xenograft SCID mouse model; settings: BID, 21 days
# Protocol: Inhibition Study of Tumor Growth In Vivo:
# SCID mice or nude mice (weighing about 18 g at the beginning of the experiment) were randomly divided into groups by the software in order to achieve close average weights between groups and control the bias within the allowable range. The mice were injected BTK cell lines (TMD-8, WSU-DLCL2 and DoHH-2) for tumor formation. Inhibitors were administered orally once or twice a day, a total of 14 days, 21 days or 28 days. Body weights and tumor volume were recorded.
# Xenograft Tumor Models Inoculated with TMD-8, or DoHH2, or WSU-DLCL2 Tumor Cell Lines:
# TMD-8 is a sensitive human diffuse large B-cell lymphoma cell line, and DoHH2 is a more difficult to treat human follicular lymphoma cell line, while WSU-DLCL2 is a multi-drug resistant (MDR) human non-Hodgkin's lymphoma cell line. Drug combination therapies provide better efficacies in all three tumor models than single targeted agent alone.
# The TMD-8, DoHH2, WSU-DLCL2 tumor cells were maintained in vitro as a suspension culture in RPMI-1640 medium supplemented with 10% heat inactivated fetal calf serum at 37° C. in an atmosphere of 5% CO2 in air. The tumor cells were routinely subcultured twice weekly. The cells growing in an exponential growth phase were harvested and counted for tumor inoculation. Each mouse was inoculated subcutaneously at the right flank with the tumor cells (10×10^6) in 0.2 ml of PBS with Matrigel (1:1) for tumor development. The treatments were started after the average tumor size reached approximately 100-200 mm^3. Each group consisted of 6-10 tumor-bearing mice. The testing article (vehicle, compound or combination) was orally administrated to the mice according to the predetermined doses for 14-days or 21-days. Animal body weight and tumor volume were measured every 2- or 3-days throughout the treatment.
# [4] = 28-day toxicity/toxicokinetic (TK) study in rats
# Source text: Toxicity and toxicokinetic (TK) studies of the compounds can be performed by well known methods.
# [5] = test system: collagen induced arthritis; test: Collagen-induced arthritis (CIA) model in male DBA/1 mice (clinical score, histopathology); type: in vivo, mouse; set-up: Clinical Score (Mean) / Pathological score (Mean ± SEM), Inflammatory cell infiltration / Pathological score (Mean ± SEM), Pannus growth / Pathological score (Mean ± SEM), Cartilage injury / Pathological score (Mean ± SEM), Bone resorption / Pathological score (Mean ± SEM), Total: scale not given here
# Protocol: Collagen-Induced Arthritis (CIA) Model: The combination of Compounds 3 and 12 was evaluated in collagen induced arthritis (CIA) mouse model in Male DBA/1 mice. The animals were divided into 8 groups, including a normal, a vehicle, […] treatment groups: […] On the same day, immunized mice were randomly divided into 7 groups: […] The treatments were given orally for 2 consecutive weeks. Body weight and clinical score were monitored through the study (recorded three times a week started after second immunization). At the end of the study, animals were euthanized and both hind paws were collected for histopathology analysis.
# TMD-8 cell line = test: Inhibition assay of tumor cell activity (cell viability), TMD-8; type: cell-based, human; settings: individual compound; for Inh % on TMD-8 cell line (AVG): 48 h
# Protocol: as §1, §2
# [6] = test system: adjuvant-induced arthritis; test: Adjuvant-induced arthritis (AA/AIA) model in female Lewis rats (paw volume, clinical score, histopathology); type: in vivo, rat; set-up: Pathological score (Mean ± SEM), Inflammatory cell infiltration / Pathological score (Mean ± SEM), Pannus growth / Pathological score (Mean ± SEM), Cartilage injury / Pathological score (Mean ± SEM), Bone resorption / Pathological score (Mean ± SEM), Total: scale not given here; settings: for Paw volume (mL), Mean: 5 mg/kg BID
# Source text: Adjuvant-Induced Arthritis AA Model: […] All rats except the normal group were immunized with complete Freund's adjuvant (CFA) subcutaneously at the left hind paw to induce arthritis at day 0. […] The treatments were given orally for 3 consecutive weeks. The body weight, paw volume and clinical score were monitored every other day after day 13 throughout the course of the study. At the terminal point, right hind paws were collected for histopathology analysis with H.E. staining.
# [7] = CIA study, Left hind paw, 3 alone, 1.5 mg/kg QD
# [8] = CIA study, Right hind paw, 3 alone, 1.5 mg/kg QD
structure (smiles),measurement,setting,value
"C=CC(=O)N1CC[C@@H](n2nc(-c3ccc(Oc4c(F)c(F)cc(F)c4F)cc3F)c3c(N)ncnc32)C1 [Compound 3, 1-((R)-3-(4-amino-3-(2-fluoro-4-(2,3,5,6-tetrafluorophenoxy)phenyl)-1H-pyrazolo[3,4-d]pyrimidin-1-yl)pyrrolidin-1-yl)prop-2-en-1-one]",AUC compared with ibrutinib,[1],significantly higher
same,Cmax,"[1]; 15 mg/kg/day, Day 1, Female",685 ± 212 ng/mL
same,inhibition at 0.01 µM,DoHH-2 cell line; 0.01 uM,15.6%
same,inhibition at 0.1 µM,DoHH-2 cell line; 0.1 uM,34.8%
same,inhibition at 1 µM,DoHH-2 cell line; 1 uM,49.9%
same,inhibition at 0.01 µM,[2]; 0.01 uM,-10.1%
same,inhibition at 0.1 µM,[2]; 0.1 uM,-1.36%
same,inhibition at 1 µM,[2]; 1 uM,41%
same,Antitumor effect (%),"[3]; FIG. 6, Oral, 5 mg/kg",28.8%
same,Antitumor effect (%),"[3]; FIG. 6, Oral, 10 mg/kg",20.1%
same,Antitumor effect (%),"[3]; FIG. 6, Oral, 30 mg/kg",35.6%
same,Antitumor effect (%),"[3]; FIG. 7, Oral, 5 mg/kg",15.9%
same,difference in drug exposure between Day 1 and Day 28,[4]; 28-day rat and dog studies,no significant difference
same,difference in drug exposure between male and female,[4]; 28-day rat and dog studies,no significant difference
same,AUC compared with ibrutinib,[4]; rats,significantly higher
same,effect on clinical score,"[5]; CIA mice model, FIG. 15",absent
same,"Pathological score (Mean ± SEM), Total","[5]; CIA study, 3 alone, 1.5 mg/kg QD",3.90 ± 1.80
same,"Pathological score (Mean ± SEM), Bone resorption",[5]; [7],0.60 ± 0.13
same,"Pathological score (Mean ± SEM), Cartilage injury",[5]; [7],0.80 ± 0.47
same,"Pathological score (Mean ± SEM), Inflammatory cell infiltration",[5]; [7],1.00 ± 0.47
same,"Pathological score (Mean ± SEM), Pannus growth",[5]; [7],0.80 ± 0.47
same,"Pathological score (Mean ± SEM), Bone resorption",[5]; [8],0.10 ± 0.10
same,"Pathological score (Mean ± SEM), Cartilage injury",[5]; [8],0.20 ± 0.20
same,"Pathological score (Mean ± SEM), Inflammatory cell infiltration",[5]; [8],0.20 ± 0.20
same,"Pathological score (Mean ± SEM), Pannus growth",[5]; [8],0.20 ± 0.20
same,Clinical Score (Mean),"[5]; CIA study, day 21, 3 alone, 1.5 mg/kg QD",0.00
same,Clinical Score (Mean),"[5]; CIA study, day 32, 3 alone, 1.5 mg/kg QD",2.60
same,Clinical Score (Mean),"[5]; CIA study, day 39, 3 alone, 1.5 mg/kg QD",4.20***
same,Clinical Score (Mean),"[5]; CIA study, day 42, 3 alone, 1.5 mg/kg QD",4.00***
same,inhibition at 0.01 µM,"TMD-8 cell line; Homo sapiens, TMD8, 48 h, 0.01 uM (10 nM), read-out: Inh % on TMD-8 cell line (AVG)",46.1%
same,inhibition at 0.1 µM,"TMD-8 cell line; Homo sapiens, TMD8, 48 h, 0.1 uM (100 nM), read-out: Inh % on TMD-8 cell line (AVG)",59.6%
same,inhibition at 1 µM,"TMD-8 cell line; Homo sapiens, TMD8, 48 h, 1 uM (1,000 nM), read-out: Inh % on TMD-8 cell line (AVG)",61.7%
same,inhibition at 10 µM,"TMD-8 cell line; Homo sapiens, TMD8, 48 h, 10 uM, read-out: Inh % on TMD-8 cell line (AVG)",74.9%
same,inhibition at 100 µM,"TMD-8 cell line; Homo sapiens, TMD8, 48 h, 100 uM, read-out: Inh % on TMD-8 cell line (AVG)",99.7%
same,Inh % on TMD-8 cell line (AVG),TMD-8 cell line; 0.01 uM (10 nM),51.66%
same,Inh % on TMD-8 cell line (AVG),TMD-8 cell line; 0.1 uM (100 nM),52.40%
same,Inh % on TMD-8 cell line (AVG),"TMD-8 cell line; 1 uM (1,000 nM)",55.05%
same,"Paw volume (mL), Mean",[6]; Day 0,1.04 mL
same,"Paw volume (mL), Mean",[6]; Day 17,1.87 ns mL
same,"Paw volume (mL), Mean",[6]; Day 26,2.29** mL
same,"Paw volume (mL), Mean",[6]; Day 28,2.12*** mL
same,"Paw volume (mL), Mean",[6]; Day 31,2.12*** mL
same,"Paw volume (mL), Mean",[6]; Day 33,2.09*** mL
same,effect on paw volume,"[6]; AA rats model, FIG. 13",absent
same,"Pathological score (Mean ± SEM), Bone resorption","[6]; AA study, 3 alone, 5 mg/kg",3.0 ± 0.45
same,"Pathological score (Mean ± SEM), Cartilage injury","[6]; AA study, 3 alone, 5 mg/kg",2.8 ± 0.51
same,"Pathological score (Mean ± SEM), Inflammatory cell infiltration","[6]; AA study, 3 alone, 5 mg/kg",3.5 ± 0.34
same,"Pathological score (Mean ± SEM), Pannus growth","[6]; AA study, 3 alone, 5 mg/kg",3.2 ± 0.53
same,"Pathological score (Mean ± SEM), Total","[6]; AA study, 3 alone, 5 mg/kg",12.5 ± 1.78
